pEC50: −log10 of the molar value.

Consider 48 molecules from patent publication US12194050B2, “Thiadiazine derivatives” (RICHTER GEDEON NYRT., priority 2018, dated 2025).

The target of this assay is human α7 nAchR (Homo sapiens (Human), UniProt P36544). The assay is described as follows: Human α7 nicotinic acetylcholine receptor [Ca2+]i assay (PAM, Ca2+ fluorometry). It is filed as cell-based. To be noted: Flp-In 293 cells expressing human α7 nAchR and human RIC-3; in presence of saturating agonist (mostly PNU-282987, 1 μM). As to the method: Biological Activity Human α7 Nicotinic Acetylcholine Receptor [Ca^2+]i Assay
Sequence of human α7 nAchR (P36544 23-502): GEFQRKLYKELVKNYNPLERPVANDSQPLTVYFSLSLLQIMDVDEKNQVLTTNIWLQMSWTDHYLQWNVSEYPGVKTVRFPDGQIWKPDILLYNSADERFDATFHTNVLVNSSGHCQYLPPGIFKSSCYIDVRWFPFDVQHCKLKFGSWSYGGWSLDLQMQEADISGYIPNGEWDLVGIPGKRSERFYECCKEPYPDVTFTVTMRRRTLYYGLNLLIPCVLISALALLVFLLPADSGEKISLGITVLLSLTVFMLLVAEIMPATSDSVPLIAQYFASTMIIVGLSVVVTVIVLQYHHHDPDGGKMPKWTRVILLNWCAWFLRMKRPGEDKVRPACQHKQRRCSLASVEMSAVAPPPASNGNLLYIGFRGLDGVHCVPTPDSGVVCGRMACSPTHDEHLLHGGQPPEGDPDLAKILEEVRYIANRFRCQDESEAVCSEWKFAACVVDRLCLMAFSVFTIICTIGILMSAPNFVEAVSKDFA
Cells: Flp-In 293 cells stably expressing human α7 nAchR and human RIC-3 (α7 cells, generated in house.)
Materials: 96-well plates coated with PDL (Falcon), culture medium, assay buffer, DMSO, FLIPR Calcium 5 kit (Molecular Devices), probenecid, agonist and PAM test compounds.
Brief Description of the Method (Ca^2+ Fluorometry)
α7 cells stably expressing human α7 nAchR were cultured in the medium detailed above, and were split twice a week. For the fluorometric measurements of cytosolic Ca^2+ ion concentration ([Ca^2+]i) cells were seeded in 96-well microplates at a density of 60000 cells/well and maintained overnight in a tissue culture incubator at 37° C. under an atmosphere of 95% air/5% CO2. The plating medium was identical with the culture medium. 50 μl of the growth medium was aspirated with a cell washer (BioTek Elx405UCVWS). Then 50 μl/well Calcium 5 kit diluted 2-fold in assay buffer was added manually using an 8-channel pipette. After an incubation period (20 minutes, 37° C.) 50 μl/well assay buffer containing vehicle (DMSO, 4% added) or reference α7 PAMs (4×of the final concentration) were added manually and the cells were incubated for an additional 10 minutes at 37° C. Baseline and agonist-evoked [Ca2+]i-changes were monitored with FlexStation II (Molecular Devices, Sunnyvale, Calif.), a plate reader fluorometer with integrated 8-channel fluid addition capability. Fluorescence measurements were carried out at 37° C. The dye was excited at 485 nm, emission was sampled at 525 nm at 1.4-s intervals. Baseline was recorded for 20 seconds followed by agonist stimulation. 50 μl 4× concentrated agonist solution was added to the cells using the pipettor of FlexStation II and fluorescence was monitored for an additional 40 seconds. Final DMSO concentration was 1% for all treatments. To achieve this, a series of DMSO stock solutions were prepared from all test compounds. These stocks were stored under 0° C. and were further diluted in assay buffer to obtain the desired final concentration immediately before the measurement. Agonist and PAM concentration-response studies were conducted in the presence of saturating concentrations of PAMs (mostly PNU-120596, 5 μM) and agonists (mostly PNU-282987, 1 μM), respectively. Results were expressed as ΔF/F values using SoftMax Pro software (Molecular Devices), where F was the resting fluorescence preceding agonist application and ΔF was the increase in fluorescence at a given time (ΔF=maximum fluorescence intensity values after stimulation minus average fluorescence intensity values before stimulation). In all experiments, all treatments were measured in multiple wells in parallel, and the mean ΔF/F values were used for analysis.
The pEC50 is the negative decadic logarithm of the EC50, by convention in mol/L. With `CCN1C(C(=O)Nc2cccc(C(F)(F)F)n2)=CC(C2CC=CC2)=NS1(=O)=O` [Example 75], the negative-log EC50 (pEC50) was 6.02. Next, `COc1ccc(C2=NS(=O)(=O)N(C)C(C(=O)Nc3ccc(C)cn3)=C2)cc1OC` [Example 17]: 5.55; `CC[C@@H](C)N1C(C(=O)Nc2cccc(C(F)(F)F)n2)=CC(c2ccc(OC)c(OC)c2)=NS1(=O)=O` [Example 81]: 6.92. As for `CCc1ccc(NC(=O)C2=CC(c3ccc(OC)c(OC)c3)=NS(=O)(=O)N2C)cc1` [Example 6], the pEC50 is 5.89.

Consider `CCN1C(C(=O)Nc2ccnc(C(F)(F)F)n2)=CC([C@H]2CC[C@H](C(F)(F)F)CC2)=NS1(=O)=O` [Example 64], for which the pEC50 is 6.48. Next, `CCN1C(C(=O)Nc2cncc(C(F)(F)F)n2)=CC(C2CCC(F)(F)CC2)=NS1(=O)=O` [Example 69]: 5.96; `CCCN1C(C(=O)Nc2ccc(OC)cc2)=CC(c2ccc(OC)c(OC)c2)=NS1(=O)=O` [Example 112]: 7.12. Regarding `CC(C)N1C(C(=O)Nc2cccc(C(F)(F)F)n2)=CC(C2CCC(F)(F)CC2)=NS1(=O)=O` [Example 126], the pEC50 was 6.66. Next, `CCN1C(C(=O)Nc2cccc(C(F)(F)F)c2)=CC(c2ccc(C)c(OC)c2)=NS1(=O)=O` [Example 49]: 6.31; `CCN1C(C(=O)Nc2cccc(Cl)c2)=CC(c2ccc(OC)c(C)c2)=NS1(=O)=O` [Example 47]: 6.30; `CCN1C(C(=O)Nc2ccc(OC(F)(F)F)cc2)=CC(c2ccc(OC)c(OC)c2)=NS1(=O)=O` [Example 32]: 6.14. In the case of `COc1ccc(NC(=O)C2=CC(c3ccc(OC)c(OC)c3)=NS(=O)(=O)N2C(C)C)cc1` [Example 108], the pEC50 is 5.89. Next, `CCCN1C(C(=O)Nc2cccc(C(F)(F)F)n2)=CC(c2ccc(OC)c(OC)c2)=NS1(=O)=O` [Example 95]: 7.35; `COc1ccc(C2=NS(=O)(=O)N(C)C(C(=O)Nc3cccc(Cl)c3)=C2)cc1OC` [Example 20]: 6.03.

As for `CCN1C(C(=O)Nc2cncc(C(F)(F)F)n2)=CC([C@H]2CC[C@H](C(F)(F)F)CC2)=NS1(=O)=O` [Example 60], the pEC50 is 6.52.

With `COc1ccc(C2=NS(=O)(=O)N(CC3CC3)C(C(=O)Nc3cccc(Cl)c3)=C2)cc1OC` [Example 104], the pEC50 was 6.43. `CCN1C(C(=O)Nc2cccc(C(F)(F)F)c2)=CC(c2ccc(OC)c(C(F)(F)F)c2)=NS1(=O)=O` [Example 39]: the negative-log EC50 (pEC50) was 6.82. Turning to `CCN1C(C(=O)Nc2cccc(C(F)(F)F)n2)=CC(C2CCCCCC2)=NS1(=O)=O` [Example 66], the negative logarithm of the EC50 (pEC50) was 6.37.

For the molecule `CCN1C(C(=O)Nc2cccc(OC)c2)=CC(c2ccc(OC)c(C)c2)=NS1(=O)=O` [Example 42], the pEC50 is 6.92. With `COc1ccc(C2=NS(=O)(=O)N(C)C(C(=O)Nc3ccc(C(C)=O)cc3)=C2)cc1OC` [Example 3], the pEC50 was 6.16. Next, `CCN1C(C(=O)Nc2cccc(C(F)(F)F)n2)=CC(c2ccc(OC)c(C(F)(F)F)c2)=NS1(=O)=O` [Example 87, 2-ethyl-5-[4-methoxy-3-(trifluoromethyl)phenyl]-1,1-dioxo-N-[6-(trifluoromethyl)pyridin-2-yl]-2H-1λ^6,2,6-thiadiazine-3-carboxamide]: 8.00. Next, `C=CCN1C(C(=O)Nc2cccc(C(F)(F)F)n2)=CC(c2ccc(OC)c(OC)c2)=NS1(=O)=O` [Example 107]: 7.26. In the case of `CCN1C(C(=O)Nc2cccc(F)n2)=CC([C@H]2CC3C[C@@H]3C2)=NS1(=O)=O` (stereo partly drawn) [Example 72], the negative-log EC50 (pEC50) is 6.37.

As for `COc1ccc(NC(=O)C2=CC(c3ccc(OC)c(OC)c3)=NS(=O)(=O)N2CC2CC2)cc1` [Example 116], the pEC50 was 7.00. Take `CCN1C(C(=O)Nc2cccc(C(C)(F)F)n2)=CC([C@H]2CC[C@H](C(F)(F)F)CC2)=NS1(=O)=O` [Example 78]: the negative logarithm of the EC50 (pEC50) was 6.10. Then `COCCN1C(C(=O)Nc2cccc(C(F)(F)F)n2)=CC([C@H]2CC[C@H](C(F)(F)F)CC2)=NS1(=O)=O` [Example 128], with 6.51; and `CCN1C(C(=O)Nc2ccc(OC)cc2)=CC(c2ccc(OC)c(C)c2)=NS1(=O)=O` [Example 43], with 6.96; and `COc1ccc(C2=NS(=O)(=O)N(C)C(C(=O)Nc3cccc(C#N)c3)=C2)cc1OC` [Example 8], with 5.74. Then `CCN1C(C(=O)Nc2ccc(C)cc2)=CC(c2ccc(OC)c(C(F)(F)F)c2)=NS1(=O)=O` [Example 41], with 7.00; and `COc1ccc(C2=NS(=O)(=O)N([C@@H]3CCOC3)C(C(=O)Nc3cccc(C(F)(F)F)n3)=C2)cc1OC` [Example 84], with 6.89; and `CN1C(C(=O)Nc2cccc(F)n2)=CC(C2CCC(F)(F)CC2)=NS1(=O)=O` [Example 56], with 5.60.

As for `COc1ccc(C2=NS(=O)(=O)N(C)C(C(=O)Nc3cccc(C)n3)=C2)cc1OC` [Example 16], the pEC50 was 5.85. Then `O=C(Nc1cccc(F)n1)C1=CC([C@H]2CC[C@H](C(F)(F)F)CC2)=NS(=O)(=O)N1CC1CC1` [Example 132], with 7.46; and `CCCN1C(C(=O)Nc2cccc(C(F)(F)F)c2)=CC(c2ccc(OC)c(C)c2)=NS1(=O)=O` [Example 98], with 7.00. Next, `CCN1C(C(=O)Nc2cccc(C(F)(F)F)n2)=CC([C@H]2CC[C@H](OC)CC2)=NS1(=O)=O` [Example 65]: 5.96. `CCN1C(C(=O)Nc2cccc(F)n2)=CC([C@H]2CC[C@H](C(F)(F)F)CC2)=NS1(=O)=O` [Example 61]: the pEC50 is 7.00.

For `COc1ccc(C2=NS(=O)(=O)N(C)C(C(=O)Nc3ccc4c(c3)OCO4)=C2)cc1OC` [Example 9], the pEC50 was 5.80. As for `CCN1C(C(=O)Nc2ccc(OC)c(Cl)c2)=CC(c2ccc(OC)c(OC)c2)=NS1(=O)=O` [Example 36], the pEC50 is 6.51. In the case of `COc1ccc(C2=NS(=O)(=O)N(C)C(C(=O)Nc3cc(C)ccn3)=C2)cc1OC` [Example 18], the negative logarithm of the EC50 (pEC50) was 5.54.

As for `CCN1C(C(=O)Nc2cccc(F)n2)=CC(C2CCC(F)(F)CC2)=NS1(=O)=O` [Example 70], the negative-log EC50 (pEC50) was 6.21.

For the molecule `COc1ccc(C2=NS(=O)(=O)N(C)C(C(=O)Nc3ccn4nccc4c3)=C2)cc1OC` [Example 7], the pEC50 is 5.70. Next, `COc1ccc(C2=NS(=O)(=O)N(CC(F)(F)F)C(C(=O)Nc3cccc(C)c3)=C2)cc1OC` [Example 119]: 6.42; `CCCN1C(C(=O)Nc2cccc(C(F)(F)F)n2)=CC(c2ccc(OC)c(Cl)c2)=NS1(=O)=O` [Example 101]: 7.19; `CCN1C(C(=O)Nc2cccc(C(F)F)n2)=CC([C@H]2CC[C@H](C(F)(F)F)CC2)=NS1(=O)=O` [Example 80]: 6.46. Next, `COc1ccc(C2=NS(=O)(=O)N(C(C)C)C(C(=O)Nc3cccc(Nc4cccc(F)n4)n3)=C2)cc1OC` [Example 90]: 5.92; `CCN1C(C(=O)Nc2cncc(F)n2)=CC([C@H]2CC[C@H](C(F)(F)F)CC2)=NS1(=O)=O` [Example 63]: 6.72. Then `CCN1C(C(=O)Nc2ccnc(C(F)(F)F)c2)=CC([C@H]2CC[C@H](C(F)(F)F)CC2)=NS1(=O)=O` [Example 88], with 5.85. On to `CCN1C(C(=O)Nc2cc(Cl)ccn2)=CC([C@H]2CC[C@H](C(F)(F)F)CC2)=NS1(=O)=O` [Example 62], for which the pEC50 was 5.55.
